Several values for one entry are separate records, joined by “and”; a condition that tells them apart may be missing. Equal entries are not always repeated.
Assays:
[1] = Octanol/water partition coefficient (Kow), batch partition method; type: physicochemical; settings: 25 °C; batch partition method (BP)
Procedure: (§1) Kow was measured for nine PFAS (Table 2) to supplement the data set for descriptor determination. The nine PFAS were selected based on measurement feasibility and structural diversity. The shared-headspace or batch partition method was used as described previously.[5] Details of the methods are given in SI-1.

[2] = PP-LFER solute descriptor determination from GC retention and partition coefficient data; type: physicochemical; settings: for Solute descriptor L (logarithmic hexadecane/air partition coefficient, KHxd/air): 25 °C, updated in the iterative calculation; for Solute descriptor S (dipolarity/polarizability parameter): final adjusted value, shared within a PFAS group
Description: The GC columns used were, from low to high polarity, HP-5ms Ultra Inert (poly[5% phenyl/95% methyl]siloxane equivalent; Agilent Technologies, Santa Clara, CA), DB-200 (poly[35% trifluoropropyl/65% methyl]siloxane; Agilent Technologies), DB-225ms (poly[50% cyanopropylphenyl/50% methyl]siloxane equivalent; Agilent Technologies), and SolGel-WAX (polyethylene glycol; Trajan, Ringwood, Australia). Column dimensions were all 30 m × 0.25 mm i.d. with a coating thickness of 0.25 μm.
The method for GC retention time measurements follows that of a previous study.[18] Briefly, a 7890A/5975C GC/MS instrument (Agilent Technologies) equipped with an MPS2 autosampler and CIS4 injector (Gerstel, Mülheim an der Ruhr, Germany) was used for all measurements. For each column, isothermal retention times were measured at four temperatures in the range of 30–120 °C to cover all target compounds. The temperature at the injector and transfer line was fixed at 120 °C. The carrier gas was He at a flow rate of 1.2 mL/min. Compounds were introduced into the GC by injecting either headspace (100–250 μL) above the pure compound or solution in acetone (1 μL). Split injections were performed with a split ratio of 20–250. Column dead time (t0) was determined by injecting air and measuring Ar (m/z 40). From the measured retention time (t), the retention factor (k) was calculated as k = (t–t0)/t0. Measurements with t < t0 + 0.1 min were considered too short and discarded. For each column and temperature, k values were obtained for 29–52 PFAS and 29–48 reference compounds.
The standard procedure for solute descriptor determination was as follows. First, the system parameters in eq 1 were calibrated for each column (or partition system) and temperature by MLR using log k (or log K) data and solute descriptors for reference compounds. Dimethylformamide, 1-pentylamine, dimethylsulfoxide, and dodecamethylcyclohexasiloxane (D6) were removed from the log k data sets, because they frequently appeared as outliers (>3 SD) of the PP-LFER model fit. Reference data sets for hexadecane/water partition coefficients (KHxd/w),[21]Kow,[22] and octanol/air partition coefficients (Koa)[23] were taken from the cited references and amended with data for organosilicon compounds.[24],[25] Similar to PFAS, organosilicon compounds have weak van der Waals interaction properties[9] and it may be beneficial to include them in reference data sets. The solute descriptors for PFAS were then back-calculated by using the calibrated PP-LFER equations. Of the five descriptors, V can be calculated from the molecular structure[26] (note: the fragment value for F from Goss et al.[11] was used), and L was available for the PFAS studied.[18] Thus, the left side of eq 2 was known, and MLR was performed to obtain S, A, and B on the right side. [drawing 2] 2 To determine the three descriptors, a minimum of three k and K data are required for a given PFAS compound. The data used here were: k measured for 60 PFAS in this study, KHxd/w for 21 PFAS,[5]Kow for 12 PFAS (see the Results and Discussion section), and Koa for 3 PFAS.[11]
Key to the accurate determination of the polar interaction descriptors is the availability of K data for partition systems with water as a partition phase because water is a strong H-bond donor and acceptor phase and thus the corresponding K values are sensitive to the H-bonding properties of the solute.[27] In particular, at least one solvent/water or air/water partition coefficient is required to determine B because there is no commonly used GC phase that is a significant H-bond donor. In the data set, KHxd/w is sensitive to both A and B and Kow is sensitive to B. However, KHxd/w and Kow data are not available for all PFAS. To increase the number of PFAS for which descriptors can be determined, the following assumptions were made. […]

[3] = parameters: method as in PMID 18800530; settings: 25 °C; batch partition method (BP); ref [4]; cited from earlier work
[4] = Octanol/water partition coefficient (Kow), shared-headspace method; type: physicochemical; settings: 25 °C; shared-headspace method (SH)
Procedure: as §1

| Compound | Measured Log Kow, Mean ± SD [1] | Solute descriptor L (logarithmic hexadecane/air partition coefficient, KHxd/air) [2] | Solute descriptor S (dipolarity/polarizability parameter) [2] | Log Kow, Mean ± SD [3] | Measured Log Kow, Mean ± SD [4] |
| --- | --- | --- | --- | --- | --- |
| CNS(=O)(=O)C(F)(F)C(F)(F)C(F)(F)C(F)(F)F [MeFBSA, N-Methylperfluorobutanesulfonamide] | 3.51 ± 0.00 | 3.566 | 0.88 | – | – |
| OCCC(F)(F)C(F)(F)C(F)(F)C(F)(F)C(F)(F)C(F)(F)C(F)(F)C(F)(F)F [8:2 FTOH, 1H,1H,2H,2H-Perfluorodecan-1-ol] | – | 3.554 | 0.35 | 5.58 ± 0.06 | – |
| CN(CCO)S(=O)(=O)C(F)(F)C(F)(F)C(F)(F)C(F)(F)F [MeFBSE, N-Methylperfluorobutanesulfonamidoethanol] | 3.11 ± 0.04 | 4.769 | 1.00 | – | – |
| FC(F)C(F)(F)C(F)(F)C(F)(F)C(F)(F)C(F)(F)CI [6:1 FTI-7H, 1H,1H,7H-Perfluoroheptyl iodide] | – | 3.887 and 3.89 | 0.63 and 0.63 ± 0.04 | – | 4.90 ± 0.01 |
| OCCC(F)(F)C(F)(F)C(F)(F)C(F)(F)C(F)(F)C(F)(F)F [6:2 FTOH, 1H,1H,2H,2H-Perfluorooctan-1-ol] | – | 2.997 | 0.35 | 4.54 ± 0.01 | – |
| NS(=O)(=O)C(F)(F)C(F)(F)C(F)(F)C(F)(F)F [PFBSA, Perfluorobutanesulfonamide] | 2.85 ± 0.02 | 3.607 | 0.96 | – | – |
| OCCC(F)(F)C(F)(F)C(F)(F)C(F)(F)F [4:2 FTOH, 1H,1H,2H,2H-Perfluorohexan-1-ol] | – | 2.421 | 0.35 | 3.30 ± 0.04 | – |

— PMC10653080, “Intermolecular Interactions, Solute Descriptors, and Partition Properties of Neutral Per- and Polyfluoroalkyl Substances (PFAS)” (Environmental Science & Technology, 2023)
